This note sets out measurements from ChEMBL document CHEMBL3244212, “Relationship of molecular structure to in vivo scintigraphic distribution of carbon-11-labeled compounds. 4. Carbon-11-labeled mandelonitriles, Mandelic acids, and their esters” (J Med Chem, 1978).

Format in all cases: ADME, organism-based, Canis lupus familiaris
Data set [1] relates to Canis familiaris. Description: Biodistribution in iv dosed dog lung after 3 mins by scintigraphic analysis. The following applies: in vivo, 0.05 h.
Data set [2] can be described thus: Biodistribution in iv dosed dog urinary bladder measured after 21 to 51 mins by scintigraphic analysis. The following applies: in vivo.
In data set [3] the test system is Canis familiaris. The experiment in a line: Biodistribution in iv dosed dog left lateral whole body measured after 4 mins by scintigraphic analysis. Particulars: in vivo; call rule not given here.
Data set [4] in a line: Ratio of drug level in temporal muscle to blood in iv dosed dog measured after 34 mins.
For data set [5], the system named is Nucleic Acid. Description: Ratio of drug level in temporal muscle to heart in iv dosed dog measured after 34 mins. Particulars: in vivo.
Data set [6] has as its system Nucleic Acid. Description: Ratio of drug level in temporal muscle to mesenteric fat in iv dosed dog measured after 40 mins. The following applies: in vivo.
The subject of data set [7] is Nucleic Acid. Description: Ratio of drug level in temporal muscle to liver in iv dosed dog measured after 40 mins. The following applies: in vivo.
The subject of data set [8] is Nucleic Acid. The experiment in a line: Ratio of drug level in temporal muscle to brain in iv dosed dog measured after 34 mins. The following applies: in vivo.
The subject of data set [9] is Nucleic Acid. The experiment in a line: Ratio of drug level in temporal muscle to stomach in iv dosed dog measured after 34 mins. The following applies: in vivo.
The nature of data set [10]: Ratio of drug level in temporal muscle to bile in iv dosed dog measured after 40 mins. The following applies: in vivo.
The subject of data set [11] is Nucleic Acid. The experiment in a line: Ratio of drug level in temporal muscle to stomach in iv dosed dog measured after 40 mins. The following applies: in vivo.
Data set [12] in a line: Ratio of drug level in temporal muscle to urine in iv dosed dog measured after 40 mins. Particulars: in vivo.
In data set [13] the test system is Nucleic Acid. Description: Ratio of drug level in temporal muscle to lung in iv dosed dog measured after 40 mins. The following applies: in vivo.
Data set [14] relates to Nucleic Acid. Description: Ratio of drug level in temporal muscle to liver in iv dosed dog measured after 34 mins. The following applies: in vivo.
For data set [15], the system named is Nucleic Acid. Description: Ratio of drug level in temporal muscle to spleen in iv dosed dog measured after 34 mins. Particulars: in vivo.
The subject of data set [16] is Nucleic Acid. The experiment in a line: Ratio of drug level in temporal muscle to mesenteric nodes in iv dosed dog measured after 40 mins. The following applies: in vivo.
For data set [17], the system named is Nucleic Acid. The experiment in a line: Ratio of drug level in temporal muscle to adrenal in iv dosed dog measured after 40 mins. The following applies: in vivo.
In data set [18] the test system is Nucleic Acid. The experiment in a line: Ratio of drug level in temporal muscle to kidney in iv dosed dog measured after 34 mins. The following applies: in vivo.
The test system of data set [19] is Nucleic Acid. Description: Ratio of drug level in temporal muscle to spleen in iv dosed dog measured after 40 mins. The following applies: in vivo.
Data set [20] relates to Nucleic Acid. Description: Ratio of drug level in temporal muscle to brain in iv dosed dog measured after 40 mins. Particulars: in vivo.
In data set [21] the test system is Nucleic Acid. Description: Ratio of drug level in temporal muscle to pancreas in iv dosed dog measured after 40 mins. Particulars: in vivo.
In data set [22] the test system is Nucleic Acid. The experiment in a line: Ratio of drug level in temporal muscle to lung in iv dosed dog measured after 34 mins. Particulars: in vivo.
Data set [23] concerns Nucleic Acid. Description: Ratio of drug level in temporal muscle to pancreas in iv dosed dog measured after 34 mins. Particulars: in vivo.
Data set [24] can be described thus: Ratio of drug level in temporal muscle to urine in iv dosed dog measured after 34 mins. The following applies: in vivo.
In data set [25] the test system is Nucleic Acid. Description: Ratio of drug level in temporal muscle to kidney in iv dosed dog measured after 40 mins. Particulars: in vivo.
Data set [26] deals with Nucleic Acid. Description: Ratio of drug level in temporal muscle to heart in iv dosed dog measured after 40 mins. The following applies: in vivo.
The test system of data set [27] is Nucleic Acid. Description: Ratio of drug level in temporal muscle to cerebrospinal fluid in iv dosed dog measured after 34 mins. The following applies: in vivo.
A short description of data set [28]: Ratio of drug level in temporal muscle to bile in iv dosed dog measured after 34 mins. Particulars: in vivo.
Data set [29] in a line: Biodistribution in iv dosed dog left lateral head/neck measured after 35 mins by scintigraphic analysis. The following applies: in vivo.
The nature of data set [30]: Biodistribution in iv dosed dog left lateral thorax measured after 27 mins by scintigraphic analysis. The following applies: in vivo, 0.45 h.
Data set [31] can be described thus: Biodistribution in iv dosed dog ventral abdomen measured after 30 mins by scintigraphic analysis. Particulars: in vivo, 0.5 h.
The nature of data set [32]: Biodistribution in iv dosed dog blood measured after 3 mins by scintigraphic analysis. Particulars: in vivo, 0.05 h.
The next data set concerns Liver. The experiment in a line: Biodistribution in iv dosed dog left lateral liver measured after 18 to 80 mins by scintigraphic analysis. The following applies: in vivo.
Data set [33] can be described thus: Biodistribution in iv dosed dog left lateral heart measured after 18 to 80 mins by scintigraphic analysis. Particulars: in vivo.

Consider `O=[11C](OCc1ccccc1)C(O)c1ccccc1` (configuration not stated), for which, in the data set with Canis familiaris [1], the Drug uptake result is on record as “Active”.
In the case of `Cc1cccc(C(O)[11C](=O)O)c1` (configuration not stated), the Drug uptake result (in [2]; with Canis familiaris [3]) was “Active” throughout.
In the case of `O=[11C](O)C(O)c1ccc(Cl)cc1` (configuration not stated), the Drug uptake entry (in [2]; in the data set with Canis familiaris [3]) was “Active” each time.
With `CCO[11C](=O)C(O)c1ccccc1` (configuration not stated), the Drug uptake result with Canis familiaris [1] is recorded as “Active”.
`O=[11C](O)C(O)c1ccccc1` (configuration not stated): the Drug uptake result (in [2]; with Canis familiaris [3]) was “Active” each time.
Usually Kp stands for tissue or fluid exposure divided by exposure in the circulation. Regarding `O=[11C](O)C(O)c1ccccc1Cl` (configuration not stated), the concentration ratio (Kp) at 34 min in data set [4] is 13.8. Further, the Ratio in the data set on Nucleic Acid [5] is reported as 1.15; in the data set with Nucleic Acid [6], 0.47; in the data set on Nucleic Acid [7], 1.79; in the data set on Nucleic Acid [8], 0.23; in the data set with Nucleic Acid [9], 1.35; in data set [10], 0.85. Moreover, the Ratio in the data set with Nucleic Acid [11] was determined as 1.17; in [12] it was 295; in the data set with Nucleic Acid [13] it was 1.6; in the data set with Nucleic Acid [14] it was 1.38; in the data set on Nucleic Acid [15], 1.08; in the data set with Nucleic Acid [16], 2.28. In addition, the Ratio with Nucleic Acid [17] is reported as 3.73; in the data set with Nucleic Acid [18], 4.46; in the data set with Nucleic Acid [19], 1.46; in the data set with Nucleic Acid [20], 0.16; in the data set on Nucleic Acid [21], 1.18; with Nucleic Acid [22], 1.08. Moreover, the Ratio in the data set with Nucleic Acid [23] was found to be 4.54; in data set [24], 36.77; with Nucleic Acid [25] it was 6.26; in the data set with Nucleic Acid [26], 1.06; with Nucleic Acid [27], 2; in [28], 1.23. In addition, the Drug uptake result (in [2]; in the data set with Canis familiaris [3]) was “Active” throughout.
In the case of `N#[11C]C(O)c1ccc(O)c(O)c1` (configuration not stated), the Drug uptake result (in data set [29]; in data set [30]; in the data set with Canis familiaris [3]; in data set [31]) was “Active” in each case.
As to `COc1ccc(C(O)[11C]#N)cc1` (configuration not stated), the Drug uptake entry (in data set [32]; in the data set with Liver; in [33]) was “Active” throughout.
